We go through 14 molecules from PubChem BioAssay AID1259246 (Broad Institute, 2017).

Experiment [1] can be described thus: antibacterial activity against Clostridioides difficile – 10-point retest, dose response (AID 1259246). Particulars: Clostridioides difficile clinical isolate growth, OD600, 24 h.
For experiment [2], the system named is Clostridioides difficile clinical isolate growth, OD600, 24 h. The experiment is described as above.

Records with an inconclusive call do not appear. Active and inactive are the calls of the source.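 How the source made its calls: active means valid dose-response fit whose half-maximal growth-inhibiting concentration is at or below a set limit above the top tested dose; inconclusive means flat fit with effect between 30 and 70%, or poor fit; inactive means half-maximal concentration above a set limit.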

As to `CO[C@H]1CN(C)C(=O)c2ccc(NC(=O)Nc3cc(Cl)cc(Cl)c3)cc2OC[C@@H](C)NC[C@H]1C`, the activity change, negative = inhibition in experiment [1] (at 120 µM (top of the series)) is 23.1% (inactive). In addition, in experiment [2], the 50% inhibitory concentration (IC50) (in general, the concentration that gives 50% inhibition) was 11.6 µM.
Take `O=C(NCC[C@H]1CC[C@H](NC(=O)C2CC2)[C@H](CO)O1)Nc1ccc(C(F)(F)F)cc1`: the activity change, negative = inhibition in experiment [1] (at 120 µM (top of the series)) was -1.84% (inactive). The IC50 in experiment [2] is 28.4 µM.
For `CO[C@@H]1CN(C)C(=O)c2ccc(NC(=O)Nc3cc(Cl)cc(Cl)c3)cc2OC[C@H](C)NC[C@@H]1C`, the activity change, negative = inhibition in experiment [1] (at 120 µM (top of the series)) is 4.74% (inactive). Moreover, the IC50 in experiment [2] is 74.6 µM.
In the case of `CO[C@H]1CN(C)C(=O)c2ccc(NC(=O)Nc3cc(Cl)cc(Cl)c3)cc2OC[C@@H](C)NC[C@@H]1C`, the activity change, negative = inhibition in experiment [1] (at 30 µM (top of the series)) was 32.6% (inactive). Moreover, the half-inhibitory concentration (IC50) in experiment [2] was 34.1 µM.
With `O=C(NCC[C@@H]1CC[C@H](NC(=O)C2CC2)[C@@H](CO)O1)Nc1ccc(C(F)(F)F)cc1`, the activity change, negative = inhibition in experiment [1] (at 120 µM (top of the series)) was 2.87% (inactive). Further, the IC50 in experiment [2] was 8.56 µM.
On to `CC(C)Cc1ccc(CN2CC[C@@H](NS(=O)(=O)c3ccccc3)C2)cc1`, for which the activity change, negative = inhibition in experiment [1] (at 60 µM (top of the series)) was 4.46% (inactive). Further, in experiment [2], the IC50 is 56 µM.
With `O=C(NCC[C@@H]1CC[C@H](NC(=O)C2CC2)[C@H](CO)O1)Nc1ccc(C(F)(F)F)cc1`, the activity change, negative = inhibition in experiment [1] (at 120 µM (top of the series)) is -0.062% (inactive). For the same molecule, in experiment [2], the half-inhibitory concentration (IC50) is 15 µM.
The like results for `O=C(NCC[C@H]1CC[C@@H](NC(=O)C2CC2)[C@H](CO)O1)Nc1ccc(C(F)(F)F)cc1` were, in that order, -4.12% (inactive) and 13.5 µM.
`COc1cccc(C#Cc2ccc([C@H]3[C@@H](CO)N(C(=O)C4CCCCC4)[C@H]3C#N)cc2)c1`: the activity change, negative = inhibition in experiment [1] (at 75 µM (top of the series)) was 12.9% (inactive). The IC50 in experiment [2] is 77.8 µM.
As to `Cc1ccc(F)cc1S(=O)(=O)N[C@@H]1CCN(Cc2ccc(OC(C)C)cc2)C1`, the activity change, negative = inhibition in experiment [1] (at 120 µM (top of the series)) was 21.4% (inactive). Also, the IC50 in experiment [2] is 29.6 µM.
Turning to `O=C(NCC[C@@H]1CC[C@@H](NC(=O)C2CC2)[C@@H](CO)O1)Nc1ccc(C(F)(F)F)cc1`, the activity change, negative = inhibition in experiment [1] (at 120 µM (top of the series)) was 2.33% (inactive). The IC50 in experiment [2] was 6.63 µM.
The like results for `O=C(NCC[C@H]1CC[C@@H](NC(=O)C2CC2)[C@@H](CO)O1)Nc1ccc(C(F)(F)F)cc1` were, in that order, 4.63% (inactive) and 8.52 µM.
Consider `C[C@@H]1CN([C@@H](C)CO)C(=O)Cc2cc(NC(=O)CCCN(C)C)ccc2O[C@@H]1CN(C)Cc1ccc(-c2ccccc2)cc1`, for which the activity change, negative = inhibition in experiment [1] (at 110 µM (top of the series)) is 88.3% (inactive). Further, in experiment [2], the IC50 was 7.29 µM.
As for `CO[C@@H](CN(C)C(=O)C1CCOCC1)[C@@H](C)CN(C(=O)Nc1ccc(C(F)(F)F)cc1)[C@@H](C)CO`, the IC50 in experiment [2] is 38.8 µM.
